Test results as given in patent US20230234941A1, “Salts of Compound and Pharmaceutical Compositions Containing the Same” (Shenzhen Forward Pharmaceuticals Co., Limited., priority 2020, published 2023).
Converted amounts (≈) assume the structure as drawn. “Also recorded” adds a separate entry of the source. Where two headings read alike, the source gives them in different places.

Assays:
[1] = Solid storage stability test; type: physicochemical; conditions: for Original morphology / Original purity: original solid before storage; for chemical and physical stability after storage (summary): solid/25° C./60% RH/open/1 week and/or solid/60° C./closed container/1 week
Procedure: Each amorphous salt solid was weighed (two 2 mg samples were weighed for purity testing after solid storage stability study, and one 10 mg sample was weighed for XRPD testing after solid storage stability study) and placed in a glass vial. In a 25° C./60% RH solid storage stability test, the amorphous salt solid was placed in a 25° C./60% RH constant temperature and humidity chamber, and placed in the dark for 1 week (i.e. “solid/25° C./60% RH/open/1 week”), and in a 60° C. solid storage stability test, the amorphous salt solid was sealed in an oven at 60° C. and heated for 1 week in the dark (i.e. “solid/60° C./closed container/l week”). Then the sample was taken out for purity testing, crystal form detection and appearance observation, respectively.

[2] = Solid solubility test (2 h and 24 h); type: physicochemical; conditions: for XRPD measured at 2 h: state of sample / solid fraction; for solubility at 2 h: 37 °C, thermodynamic from solid
Procedure: samples were weighed for each amorphous salt solid (equivalent to 20 mg of free base), and 10 mL of the following solvents were respectively added: 0.1N HCl solution (pH 1.0), 50 mM phosphate buffer (pH 4.5), FeSSIF-V1 (pH 5.0), FaSSIF-V1 (pH 6.5) and SGF (pH 2.0), […] The suspension was then centrifuged at 37° C., the supernatant was measured for solubility by HPLC, and the solid fraction was measured for XRPD. The target solubility was at least 2 mg (based on free base)/mL.

[3] = Chemical and physical stability of the salts at the end of the preparation; type: physicochemical
From the text: It is crucial for drug development whether the salts obtained as above have chemical and physical stability at the end of the preparation. The chemical and physical stability of the salts at the end of the preparation includes: […]

[4] = system: EGFR activating mutation (such as exon 19 deletion activating mutation, L858R activating mutation, T790M drug resistance mutation and exon 20 insertion …); conditions: disclosed in CN105461695B; cited from earlier work
[5] = Test BS1: solid/25° C./60% RH/open/1 week
[6] = listed as 1 eq. hydrobromide salt
[7] = listed as crystalline 1 eq. hydrobromide salt
[8] = solid/60° C./closed container/1 week (Test BS1)
[9] = FaSSIF-V1 (pH 6.5) (Test ES4, partly printed ES1)
[10] = FaSSIF-V1 (pH 6.5) (Test ES4, partly printed ES1), 37° C., based on free base
[11] = Test ES1: 0.1N HCl solution (pH 1.0)
[12] = Test ES1: 0.1N HCl solution (pH 1.0), 37° C., based on free base
[13] = Test ES2: 50 mM phosphate buffer (pH 4.5)
[14] = Test ES2: 50 mM phosphate buffer (pH 4.5), 37° C., based on free base
[15] = Test ES3: FeSSIF-V1 (pH 5.0), 37° C., based on free base
[16] = Test ES5: SGF (pH 2.0), 37° C., based on free base
[17] = listed as amorphous 2 eq. besylate salt
[18] = listed as amorphous 1 eq. maleate salt

SMILES	Purity [1, 5]	Original morphology [1]	Original purity [1]	Purity [1, 8]	pH measured at 2 h [2, 9]	Solubility measured at 2 h [2, 10]	pH measured at 2 h [2, 11]	Solubility measured at 2 h [2, 12]	XRPD measured at 2 h [2, 11]	pH measured at 2 h [2, 13]	Solubility measured at 2 h [2, 14]	XRPD measured at 2 h [2, 13]	pH measured at 2 h ([2]; Test ES3: FeSSIF-V1 (pH 5.0))	Solubility measured at 2 h [2, 15]	XRPD measured at 2 h ([2]; Test ES3: FeSSIF-V1 (pH 5.0))	pH measured at 2 h ([2]; Test ES5: SGF (pH 2.0))	Solubility measured at 2 h [2, 16]	XRPD measured at 2 h ([2]; Test ES5: SGF (pH 2.0))	XRPD measured at 2 h [2, 9]	other results
C=CC(=O)Nc1cc(Nc2ncnc(-c3cn(C)c4ccccc34)n2)c(OC)cc1N(C)CCN(C)C [Example 10]	99.9%	crystalline	99.9%	99.9%	(6.4)	700 µg/mL (≈ 1.4 mM)	(0.8)	>2000 µg/mL	clear solution	(4.4)	>2000 µg/mL	clear solution	(4.8)	>2000 µg/mL	clear solution	(1.9)	>2000 µg/mL	clear solution	–	chemical and physical stability after storage (summary) [1, 6]: chemically and physically stable; chemical and physical stability after storage (summary) [1, 7]: chemically and physically stable; physical and chemical stability under storage (in words) ([1]; solid/25° C./60% RH/open/1 week, listed as crystalline 1 eq. hydrobromide salt): good physical and chemical stability; physical and chemical stability under storage (in words) ([1]; solid/60° C./closed container/1 week, listed as crystalline 1 eq. hydrobromide salt): good physical and chemical stability; chemical and physical stability at the end of the preparation [3, 6]: chemically and physically stable; chemical and physical stability at the end of the preparation [3, 7]: chemically and physically stable
C=CC(=O)Nc1cc(Nc2ncnc(-c3cn(C)c4ccccc34)n2)c(OC)cc1N(C)CCN(C)C [Example 7]	99.6%	amorphous	99.6%	99.4%	(6.1)	>2000 µg/mL	(0.8)	1800 µg/mL (≈ 3.6 mM)	–	(4.2)	>2000 µg/mL	clear solution	L(4.8)	>2000 µg/mL	clear solution	(1.7)	>2000 µg/mL	clear solution	clear solution	chemical and physical stability after storage (summary) ([1]; listed as 2 eq. besylate salt): physically unstable; chemical and physical stability after storage (summary) [1, 17]: physically unstable; physical and chemical stability under storage (in words) ([1]; solid/25° C./60% RH/open/1 week, listed as amorphous 2 eq. besylate salt): slight color change and showed significant hygroscopicity (caking and fusion to a glassy state); physical and chemical stability under storage (in words) ([1]; solid/60° C./closed container/1 week, listed as amorphous 2 eq. besylate salt): good physical and chemical stability; solubility at 2 h ([2]; 0.1N HCl solution, pH 1, simulated gastric fluid, Test ES1: 0.1N HCl solution (pH 1.0), 37° C., based on free base, read-out: Solubility measured at 2 h): < 2000 µg/mL; solubility at 2 h ([2]; not achieved in some solvents / greater in various solvents, read-out: solubility in solvents that mimic physiological conditions): < 2000 µg/mL; chemical and physical stability at the end of the preparation ([3]; listed as 2 eq. besylate salt): chemically and physically stable; chemical and physical stability at the end of the preparation [3, 17]: chemically and physically stable
C=CC(=O)Nc1cc(Nc2ncnc(-c3cn(C)c4ccccc34)n2)c(OC)cc1N(C)CCN(C)C [compound of formula (I)]	–	–	–	–	–	–	–	–	–	–	–	–	–	–	–	–	–	–	–	inhibitory activity against EGFR activating mutation compared with wild-type EGFR (WT EGFR) [4]: significantly higher
C=CC(=O)Nc1cc(Nc2ncnc(-c3cn(C)c4ccccc34)n2)c(OC)cc1N(C)CCN(C)C [Example 9]	99.7%	amorphous	99.8%	98.2%	(6.1)	>2000 µg/mL	(0.8)	>2000 µg/mL	clear solution	(4.3)	>2000 µg/mL	clear solution	(4.8)	>2000 µg/mL	clear solution	(2.0)	–	clear solution	clear solution	chemical and physical stability after storage (summary) ([1]; listed as 1 eq. maleate salt): chemically unstable; also recorded: physically unstable; chemical and physical stability after storage (summary) [1, 18]: chemically unstable; also recorded: physically unstable; physical and chemical stability under storage (in words) ([1]; solid/25° C./60% RH/open/1 week, listed as amorphous 1 eq. maleate salt): slight color change and showed a certain hygroscopicity (agglomeration); decrease in purity ([1]; solid/60° C./closed container/1 week): about 2%; physical and chemical stability under storage (in words) ([1]; solid/60° C./closed container/1 week, listed as amorphous 1 eq. maleate salt): transformed from amorphous to a low crystallinity; solubility at 2 h ([2]; SGF, pH 2, simulated gastric fluid, Test ES5: SGF (pH 2.0), 37° C., based on free base, read-out: Solubility measured at 2 h): > 2000 µg/mL; chemical and physical stability at the end of the preparation ([3]; listed as 1 eq. maleate salt): chemically and physically stable; chemical and physical stability at the end of the preparation [3, 18]: chemically and physically stable
